Reference: publication PMC11839852, “Preclinical comparison of (radio)lanthanides using mass spectrometry and nuclear imaging techniques: biodistribution of lanthanide-based tumor-targeting agents and lanthanides in ionic form” (European Journal of Nuclear Medicine and Molecular Imaging, 2024)
Where two headings read alike, the source gives them in different places. Marks after values point to notes of the source that are not given here.

How the values were obtained:
[1] = tested on: PC-3 PIP/flu tumor-bearing mice; conditions: Ln-PSMA-617; for Tissue uptake: Blood / Tissue uptake: Bone / Tissue uptake: Heart / Tissue uptake: Intestines / Tissue uptake: Kidneys / Tissue uptake: Liver / Tissue uptake: Lung / Tissue uptake: Muscle / Tissue uptake: Salivary glands / Tissue uptake: Spleen / Tissue uptake: Stomach: PC-3 PIP/flu tumor-bearing mice; for Tissue uptake: PC-3 flu tumor: PSMA-negative xenograft; for Tissue uptake: PC-3 PIP tumor: PSMA-positive xenograft; for PC-3 PIP tumor-to-background organ ratios: Tumor-to-blood / PC-3 PIP tumor-to-background organ ratios: Tumor-to-liver: estimated ratios (organ <0.5% ID/g)
[2] = tested on: non-tumor-bearing immunocompetent FVB mice; assay: Biodistribution of lanthanide chloride salts LnCl3 (multiplexed ICP-MS); assay type: in vivo; conditions: for Tissue uptake: Blood / Tissue uptake: Bone / Tissue uptake: Brain / Tissue uptake: Heart / Tissue uptake: Intestines / Tissue uptake: Kidneys / Tissue uptake: Liver / Tissue uptake: Lung / Tissue uptake: Muscle / Tissue uptake: Pancreas / Tissue uptake: Salivary glands / Tissue uptake: Spleen / Tissue uptake: Stomach: non-tumor-bearing mice
[3] = 24 h p.i., estimated ratios (organ <0.5% ID/g)
[4] = 96 h p.i., estimated ratios (organ <0.5% ID/g)

## O=C([O-])CN1CCN(CC(=O)[O-])CCN(CC(=O)NC[C@H]2CC[C@H](C(=O)N[C@@H](Cc3ccc4ccccc4c3)C(=O)NCCCC[C@H](NC(=O)N[C@@H](CCC(=O)O)C(=O)O)C(=O)O)CC2)CCN(CC(=O)[O-])CC1.[153Eu+3] [[^153Eu]Eu-PSMA-617]
[1]; 1 h p.i.
  PC-3 PIP tumor-to-background organ ratios: Tumor-to-kidney: 3.3 ± 1.1
  Tissue uptake: Blood: <0.5 % ID/g
  Tissue uptake: Bone: <0.5 % ID/g
  Tissue uptake: Heart: 0.52 ± 0.42 % ID/g
  Tissue uptake: Intestines: <0.5 % ID/g
  Tissue uptake: Kidneys: 8.1 ± 3.5 % ID/g
  Tissue uptake: Liver: <0.5 % ID/g
  Tissue uptake: Lung: <0.5 % ID/g
  Tissue uptake: Muscle: <0.5 % ID/g
  Tissue uptake: Salivary glands: <0.5 % ID/g
  Tissue uptake: Spleen: 0.51 ± 0.17 % ID/g
  Tissue uptake: Stomach: <0.5 % ID/g
  Tissue uptake: PC-3 flu tumor: <0.5 % ID/g
  Tissue uptake: PC-3 PIP tumor: 24 ± 3 % ID/g
  PC-3 PIP tumor-to-background organ ratios: Tumor-to-blood: >50^*
  PC-3 PIP tumor-to-background organ ratios: Tumor-to-liver: >50^*
[1]; 4 h p.i.
  PC-3 PIP tumor-to-background organ ratios: Tumor-to-kidney: 23 ± 3
  Tissue uptake: Blood: <0.5 % ID/g
  Tissue uptake: Bone: <0.5 % ID/g
  Tissue uptake: Heart: <0.5 % ID/g
  Tissue uptake: Intestines: <0.5 % ID/g
  Tissue uptake: Kidneys: 1.1 ± 0.3 % ID/g
  Tissue uptake: Liver: <0.5 % ID/g
  Tissue uptake: Lung: <0.5 % ID/g
  Tissue uptake: Muscle: <0.5 % ID/g
  Tissue uptake: Salivary glands: <0.5 % ID/g
  Tissue uptake: Spleen: <0.5 % ID/g
  Tissue uptake: Stomach: <0.5 % ID/g
  Tissue uptake: PC-3 flu tumor: <0.5 % ID/g
  Tissue uptake: PC-3 PIP tumor: 23 ± 3 % ID/g
  PC-3 PIP tumor-to-background organ ratios: Tumor-to-blood: >46^*
  PC-3 PIP tumor-to-background organ ratios: Tumor-to-liver: >46^*

## O=C([O-])CN1CCN(CC(=O)[O-])CCN(CC(=O)NCC2CCC(C(=O)NC(Cc3ccc4ccccc4c3)C(=O)NCCCCC(NC(=O)NC(CCC(=O)O)C(=O)O)C(=O)O)CC2)CCN(CC(=O)[O-])CC1.[Tb+3] (stereo not shown) [[^159Tb]Tb-PSMA-617]
[1]; 1 h p.i.
  PC-3 PIP tumor-to-background organ ratios: Tumor-to-kidney: 3.3 ± 1.0
  Tissue uptake: Blood: <0.5 % ID/g
  Tissue uptake: Bone: <0.5 % ID/g
  Tissue uptake: Heart: <0.5 % ID/g
  Tissue uptake: Intestines: <0.5 % ID/g
  Tissue uptake: Kidneys: 8.4 ± 3.5 % ID/g
  Tissue uptake: Liver: <0.5 % ID/g
  Tissue uptake: Lung: <0.5 % ID/g
  Tissue uptake: Muscle: <0.5 % ID/g
  Tissue uptake: Salivary glands: <0.5 % ID/g
  Tissue uptake: Spleen: <0.5 % ID/g
  Tissue uptake: Stomach: <0.5 % ID/g
  Tissue uptake: PC-3 flu tumor: <0.5 % ID/g
  Tissue uptake: PC-3 PIP tumor: 25 ± 3 % ID/g
  PC-3 PIP tumor-to-background organ ratios: Tumor-to-blood: >51^*
  PC-3 PIP tumor-to-background organ ratios: Tumor-to-liver: >51^*
[1]; 4 h p.i.
  PC-3 PIP tumor-to-background organ ratios: Tumor-to-kidney: 24 ± 3
  Tissue uptake: Blood: <0.5 % ID/g
  Tissue uptake: Bone: <0.5 % ID/g
  Tissue uptake: Heart: <0.5 % ID/g
  Tissue uptake: Intestines: <0.5 % ID/g
  Tissue uptake: Kidneys: 1.0 ± 0.2 % ID/g
  Tissue uptake: Liver: <0.5 % ID/g
  Tissue uptake: Lung: <0.5 % ID/g
  Tissue uptake: Muscle: <0.5 % ID/g
  Tissue uptake: Salivary glands: <0.5 % ID/g
  Tissue uptake: Spleen: <0.5 % ID/g
  Tissue uptake: Stomach: <0.5 % ID/g
  Tissue uptake: PC-3 flu tumor: <0.5 % ID/g
  Tissue uptake: PC-3 PIP tumor: 23 ± 3 % ID/g
  PC-3 PIP tumor-to-background organ ratios: Tumor-to-blood: >46^*
  PC-3 PIP tumor-to-background organ ratios: Tumor-to-liver: >46^*

## O=C([O-])CN1CCN(CC(=O)[O-])CCN(CC(=O)NCC2CCC(C(=O)NC(Cc3ccc4ccccc4c3)C(=O)NCCCCC(NC(=O)NC(CCC(=O)O)C(=O)O)C(=O)O)CC2)CCN(CC(=O)[O-])CC1.[Lu+3] (stereo not shown) [[^175Lu]Lu-PSMA-617]
[1]; 1 h p.i.
  PC-3 PIP tumor-to-background organ ratios: Tumor-to-kidney: 2.7 ± 0.8
  Tissue uptake: Blood: <0.5 % ID/g
  Tissue uptake: Bone: <0.5 % ID/g
  Tissue uptake: Heart: <0.5 % ID/g
  Tissue uptake: Intestines: <0.5 % ID/g
  Tissue uptake: Kidneys: 10 ± 4 % ID/g
  Tissue uptake: Liver: <0.5 % ID/g
  Tissue uptake: Lung: <0.5 % ID/g
  Tissue uptake: Muscle: <0.5 % ID/g
  Tissue uptake: Salivary glands: <0.5 % ID/g
  Tissue uptake: Spleen: 0.64 ± 0.48 % ID/g
  Tissue uptake: Stomach: 0.56 ± 0.19 % ID/g
  Tissue uptake: PC-3 flu tumor: <0.5 % ID/g
  Tissue uptake: PC-3 PIP tumor: 25 ± 3 % ID/g
  PC-3 PIP tumor-to-background organ ratios: Tumor-to-blood: >51^*
  PC-3 PIP tumor-to-background organ ratios: Tumor-to-liver: >51^*
[1]; 4 h p.i.
  PC-3 PIP tumor-to-background organ ratios: Tumor-to-kidney: 18 ± 3
  Tissue uptake: Blood: <0.5 % ID/g
  Tissue uptake: Bone: <0.5 % ID/g
  Tissue uptake: Heart: <0.5 % ID/g
  Tissue uptake: Intestines: <0.5 % ID/g
  Tissue uptake: Kidneys: 1.4 ± 0.4 % ID/g
  Tissue uptake: Liver: <0.5 % ID/g
  Tissue uptake: Lung: <0.5 % ID/g
  Tissue uptake: Muscle: <0.5 % ID/g
  Tissue uptake: Salivary glands: <0.5 % ID/g
  Tissue uptake: Spleen: <0.5 % ID/g
  Tissue uptake: Stomach: <0.5 % ID/g
  Tissue uptake: PC-3 flu tumor: <0.5 % ID/g
  Tissue uptake: PC-3 PIP tumor: 23 ± 3 % ID/g
  PC-3 PIP tumor-to-background organ ratios: Tumor-to-blood: >47^*
  PC-3 PIP tumor-to-background organ ratios: Tumor-to-liver: >47^*

## [Cl][Lu]([Cl])[Cl] [[^175Lu]LuCl3]
[2]; 1 h p.i.
  Organ ratios: Blood-to-bone: 0.38 ± 0.23
  Organ ratios: Blood-to-liver: 0.61 ± 0.35
  Organ ratios: Liver-to-bone: 0.64 ± 0.13
  Tissue uptake: Blood: 6.4 ± 2.7 % ID/g
  Tissue uptake: Bone: 18 ± 3 % ID/g
  Tissue uptake: Brain: <0.5 % ID/g
  Tissue uptake: Heart: 3.6 ± 1.5 % ID/g
  Tissue uptake: Intestines: 3.2 ± 1.1 % ID/g
  Tissue uptake: Kidneys: 7.3 ± 1.7 % ID/g
  Tissue uptake: Liver: 11 ± 3 % ID/g
  Tissue uptake: Lung: 5.6 ± 2.2 % ID/g
  Tissue uptake: Muscle: 1.5 ± 0.6 % ID/g
  Tissue uptake: Pancreas: 2.6 ± 0.8 % ID/g
  Tissue uptake: Salivary glands: 2.6 ± 0.9 % ID/g
  Tissue uptake: Spleen: 3.8 ± 0.5 % ID/g
  Tissue uptake: Stomach: 5.8 ± 2.1 % ID/g
[2]; 24 h p.i.
  Organ ratios: Liver-to-bone: 0.49 ± 0.19
  Tissue uptake: Blood: <0.5 % ID/g
  Tissue uptake: Bone: 25 ± 5 % ID/g
  Tissue uptake: Brain: <0.5 % ID/g
  Tissue uptake: Heart: 0.54 ± 0.06 % ID/g
  Tissue uptake: Intestines: 0.61 ± 0.02 % ID/g
  Tissue uptake: Kidneys: 3.7 ± 1.0 % ID/g
  Tissue uptake: Lung: 0.88 ± 0.13 % ID/g
  Tissue uptake: Muscle: <0.5 % ID/g
  Tissue uptake: Pancreas: <0.5 % ID/g
  Tissue uptake: Salivary glands: 0.55 ± 0.17 % ID/g
  Tissue uptake: Spleen: 3.5 ± 0.9 % ID/g
  Tissue uptake: Stomach: 1.8 ± 0.3 % ID/g
[2]; [3]
  Organ ratios: Blood-to-bone: <0.02^*
  Organ ratios: Blood-to-liver: <0.05^*
[2]; 24 h p.i., listed as lutetium
  Tissue uptake: Liver: 12 ± 3 % ID/g
[2]; 24 h p.i., listed as natLu
  Tissue uptake: Liver: ~ 12 % ID/g
[2]; 96 h p.i.
  Organ ratios: Liver-to-bone: 0.14 ± 0.04
  Tissue uptake: Blood: <0.5 % ID/g
  Tissue uptake: Bone: 35 ± 4 % ID/g
  Tissue uptake: Brain: <0.5 % ID/g
  Tissue uptake: Heart: 0.89 ± 0.25 % ID/g
  Tissue uptake: Intestines: 0.54 ± 0.14 % ID/g
  Tissue uptake: Kidneys: 2.7 ± 0.2 % ID/g
  Tissue uptake: Liver: 4.8 ± 0.9 % ID/g
  Tissue uptake: Lung: 1.1 ± 0.2 % ID/g
  Tissue uptake: Muscle: <0.5 % ID/g
  Tissue uptake: Pancreas: <0.5 % ID/g
  Tissue uptake: Salivary glands: 0.50 ± 0.06 % ID/g
  Tissue uptake: Spleen: 2.3 ± 0.2 % ID/g
  Tissue uptake: Stomach: 2.5 ± 0.2 % ID/g
[2]; [4]
  Organ ratios: Blood-to-bone: <0.01^*
  Organ ratios: Blood-to-liver: <0.11^*
